Experimental data reported in ChEMBL document CHEMBL3632610, “Expanding the structural diversity of Bcr-Abl inhibitors: Dibenzoylpiperazin incorporated with 1H-indazol-3-amine” (Eur J Med Chem, 2015).

Assays:
Bcr/Abl fusion protein [1] = biological target: Bcr/Abl fusion protein (Homo sapiens, UniProt P00519); test: Inhibition of wild type Bcr-Abl (unknown origin) by ADP-Glo assay; format: protein assay
K562 = test: Cytotoxicity against human K562 cells expressing Bcr-Abl assessed as growth inhibition after 48 hrs by MTT assay; conditions: K562, 48 h
Bcr/Abl fusion protein [2] = biological target: Bcr/Abl fusion protein (Homo sapiens, UniProt P00519, T315I); test: Inhibition of Bcr-Abl T315I mutant (unknown origin) by ADP-Glo assay; format: protein assay

IC50 (Bcr/Abl fusion protein [1]) [µM] | IC50 (Bcr/Abl fusion protein [2]) [µM] | SMILES | IC50 (K562) [µM]
2.76 | 94.6 | Nc1n[nH]c2cccc(-c3ccc(C(=O)N4CCN(C(=O)c5cccc(C(F)(F)F)c5)CC4)cc3)c12 | 18.1
0.014 | 0.45 | Nc1n[nH]c2cccc(-c3ccc(C(=O)N4CCN(C(=O)c5ccc(Cl)cc5Cl)CC4)cc3)c12 | 6.5
0.018 | 28.8 | Cc1ccccc1C(=O)NCCNC(=O)c1ccc(-c2cccc3[nH]nc(N)c23)cc1 | 8
0.084 | 3.41 | Nc1n[nH]c2cccc(-c3ccc(C(=O)N4CCN(C(=O)c5ccccc5Cl)CC4)cc3)c12 | 53.7
1.89 | 65.6 | Nc1n[nH]c2cccc(-c3ccc(C(=O)N4CCN(C(=O)c5ccc(Cl)cc5)CC4)cc3)c12 | 10.5
0.25 | > 100 | COc1ccccc1C(=O)NCCNC(=O)c1ccc(-c2cccc3[nH]nc(N)c23)cc1 | 13.9
 | > 100 | Nc1n[nH]c2cccc(-c3ccc(C(=O)NCCNC(=O)c4cccc(F)c4)cc3)c12 | 26.9
8.56 | > 100 | Cc1ccccc1C(=O)N1CCN(C(=O)c2ccc(-c3cccc4[nH]nc(N)c34)cc2)CC1 | 17.2
> 100 | > 100 | COc1ccc(C(=O)N2CCN(C(=O)c3ccc(-c4cccc5[nH]nc(N)c45)cc3)CC2)cc1 | 69.7
> 100 | 83.5 | Nc1n[nH]c2cccc(-c3ccc(C(=O)N4CCN(C(=O)c5ccc(F)c(F)c5)CC4)cc3)c12 | 21.5
0.18 | 0.74 | Nc1n[nH]c2cccc(-c3ccc(C(=O)N4CCN(C(=O)c5ccccc5Br)CC4)cc3)c12 | 47.3

Second part, the molecule before the results:

SMILES | IC50 (Bcr/Abl fusion protein [1]) [µM] | IC50 (Bcr/Abl fusion protein [2]) [µM] | IC50 (K562) [µM]
Cc1cccc(C(=O)N2CCN(C(=O)c3ccc(-c4cccc5[nH]nc(N)c45)cc3)CC2)c1 | 2.37 | > 100 | 21.8
Cc1nc(Nc2ncc(C(=O)Nc3c(C)cccc3Cl)s2)cc(N2CCN(CCO)CC2)n1 [DASATINIB] |  |  | 0.45
COc1cc(OC)cc(C(=O)N2CCN(C(=O)c3ccc(-c4cccc5[nH]nc(N)c45)cc3)CC2)c1 |  | > 100 | 105
Nc1n[nH]c2cccc(-c3ccc(C(=O)NCCNC(=O)c4cccc(C(F)(F)F)c4)cc3)c12 | 0.45 | 56.3 | 61.9
COc1ccc(C(=O)NCCNC(=O)c2ccc(-c3cccc4[nH]nc(N)c34)cc2)cc1 | > 100 | > 100 | 258
Nc1n[nH]c2cccc(-c3ccc(C(=O)NCCNC(=O)c4ccccc4Br)cc3)c12 | 0.031 | 1.04 | 13.1
Nc1n[nH]c2cccc(-c3ccc(C(=O)NCCNC(=O)c4ccc(F)c(F)c4)cc3)c12 | 14.3 | 75.3 | 28.4
COc1cccc(C(=O)N2CCN(C(=O)c3ccc(-c4cccc5[nH]nc(N)c45)cc3)CC2)c1 | 49.2 | > 100 | 9.6
COc1ccccc1C(=O)N1CCN(C(=O)c2ccc(-c3cccc4[nH]nc(N)c34)cc2)CC1 | 22.8 | > 100 | 32.1
Nc1n[nH]c2cccc(-c3ccc(C(=O)N4CCN(C(=O)c5cccc(F)c5)CC4)cc3)c12 | 0.086 | 2.07 | 30.2
